# Test results taken from patent publication US12134620B2 (ARAXES PHARMA LLC, priority 2018, dated 2024).
# Target: T1, KRAS G12C 1-169, his-tagged protein, GDP-loaded (Homo sapiens, UniProt P01116, G12C)
# T1 construct: KRAS G12C 1-169, his-tagged protein, GDP-loaded; His tag
# Test: Biochemical assay: covalent modification of KRAS G12C, analysed by mass spectrometry (RapidFire/TOF or Q-Exactive); further: time not given here
# Format: binding
# Conditions: Modification activity, modification percentage from MS peak intensities
# Procedure, shortened: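 GDP-loaded His-tagged KRAS G12C 1-169 (2 μM or 0.5 μM in 20 mM Hepes, 150 mM NaCl, 1 mM MgCl2) reacted with compound at 32 μM or 8 μM final (2% DMSO) for a set time, then quenched with formic acid. Percent covalent modification from deconvoluted intact-protein MS peak intensities (RapidFire/TOF or LC-Q Exactive).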
row,SMILES,Binding %
1,"C=CC(=O)N1CC2(CCN(c3nc(OC[C@@H]4CCCN4C)nc(-c4c(C)ccc5cn[nH]c45)c3C#N)C2)C1 [Compound I-82, 4-(2-acryloyl-2,6-diazaspiro[3.4]octan-6-yl)-6-(6-methyl-1H-indazol-7-yl)-2-(((S)-1-methylpyrrolidin-2-yl)methoxy)pyrimidine-5-carbonitrile]",+ (+ indicates binding activity greater than 0% and up to 50%)
2,C=CC(=O)N1CC2(CCN(c3nc(OCc4cc(F)cc(F)c4)nc(-c4c(C)ccc5[nH]ncc45)c3C#N)C2)C1 [Compound I-152],++ (++ indicates binding activity from 50 to 85%)
3,"C=CC(=O)N1CC2(CCN(c3nc(N4CCC(N5CCN(C)[C@@H](C)C5)CC4)nc(-c4c(C)ccc5[nH]ncc45)c3C#N)C2)C1 [Compound I-191, 4-(2-acryloyl-2,6-diazaspiro[3.4]octan-6-yl)-2-(4-((S)-3,4-dimethylpiperazin-1-yl)piperidin-1-yl)-6-(5-methyl-1H-indazol-4-yl)pyrimidine-5-carbonitrile]",+++ (+++ indicates binding activity greater than 85%)
4,"C=CC(=O)N1CC2(CCN(c3nc(OCc4ccccn4)nc(-c4c(C)ccc5cn[nH]c45)c3C#N)C2)C1 [Compound I-93, 4-(2-acryloyl-2,6-diazaspiro[3.4]octan-6-yl)-6-(6-methyl-1H-indazol-7-yl)-2-(pyridin-2-ylmethoxy)pyrimidine-5-carbonitrile]",+++ (+++ indicates binding activity greater than 85%)
5,"C=CC(=O)N1CC2(CCN(c3nc(OC[C@H]4CCN(C)C4)nc(-c4c(C)ccc5[nH]ncc45)c3C#N)C2)C1 [Compound I-116, 4-(2-acryloyl-2,6-diazaspiro[3.4]octan-6-yl)-6-(5-methyl-1H-indazol-4-yl)-2-(((S)-1-methylpyrrolidin-3-yl)methoxy)pyrimidine-5-carbonitrile]",++ (++ indicates binding activity from 50 to 85%)
6,"C=CC(=O)N1CC2(CCN(c3cc(-c4c(C)ccc5cn[nH]c45)ncn3)C2)C1 [Compound I-226, 1-(6-(6-(6-methyl-1H-indazol-7-yl)pyrimidin-4-yl)-2,6-diazaspiro[3.4]octan-2-yl)prop-2-en-1-one]",+ (+ indicates binding activity greater than 0% and up to 50%)
7,"C=CC(=O)N1CC2(CCN(c3c(OCCCN(C)C)ncc(-c4c(C)ccc5cnn(C)c45)c3C#N)C2)C1 [Compound I-184, 3-(2-acryloyl-2,6-diazaspiro[3.4]octan-6-yl)-5-(1,6-dimethyl-1H-indazol-7-yl)-2-(3-(dimethylamino)pro-poxy)isonicotinonitrile]",+ (+ indicates binding activity greater than 0% and up to 50%)
8,"C/C=C/C(=O)N1CC2(CCN(c3ncnc(-c4c(C)ccc5[nH]ncc45)c3C#N)C2)C1 [Compound I-266, (E)-4-(2-(but-2-enoyl)-2,6-diazaspiro[3.4]octan-6-yl)-6-(5-methyl-1 1H-indazol-4-yl)pyrimidine-5-carbonitrile]",+ (+ indicates binding activity greater than 0% and up to 50%)
9,"C=CC(=O)N1CC2(CCN(c3ncnc(-c4c(C)ccc5[nH]cnc45)c3C#N)C2)C1 [Compound I-250, 4-(2-acryloyl-2,6-diazaspiro[3.4]octan-6-yl)-6-(5-methyl-1H-benzo[d]imidazol-4-yl)pyrimidine-5-carbonitrile]",+ (+ indicates binding activity greater than 0% and up to 50%)
10,"C=CC(=O)N1CC2(CCN(c3nc(N4CCOCC4)nc(-c4c(C)ccc5c4cnn5C)c3C#N)C2)C1 [Compound I-79, 4-(2-acryloyl-2,6-diazaspiro[3.4]octan-6-yl)-6-(1,5-dimethyl-1H-indazol-4-yl)-2-morpholinopyrimidine-5-carbonitrile]",+ (+ indicates binding activity greater than 0% and up to 50%)
11,"C=CC(=O)N1CC2(CCN(c3nc(N4CCC(N5CCN(C)[C@H](C)C5)CC4)nc(-c4c(C)ccc5[nH]ncc45)c3C#N)C2)C1 [Compound I-188, 4-(2-acryloyl-2,6-diazaspiro[3.4]octan-6-yl)-2-(4-((R)-3,4-dimethylpiperazin-1-yl)piperidin-1-yl)-6-(5-methyl-1H-indazol-4-yl)pyrimidine-5-carbonitrile]",+++ (+++ indicates binding activity greater than 85%)
12,"C=CC(=O)N1CC2(CCN(c3nc(Oc4cnn(C)c4)nc(-c4c(C)ccc5[nH]ncc45)c3C#N)C2)C1 [Compound I-19, 4-(2-acryloyl-2,6-diazaspiro[3.4]octan-6-yl)-6-(5-methyl-1H-indazol-4-yl)-2-((1-methyl-1H-pyrazol-4-yl)oxy)pyrimidine-5-carbonitrile]",++ (++ indicates binding activity from 50 to 85%)
13,"C=CC(=O)N1CC2(CCN(c3nc(OCc4ccccn4)nc(-c4c(C)ccc5[nH]ncc45)c3C#N)C2)C1 [Compound I-15, 4-(2-acryloyl-2,6-diazaspiro[3.4]octan-6-yl)-6-(5-methyl-1H-indazol-4-yl)-2-(pyridin-2-ylmethoxy)pyrimidine-5-carbonitrile]",+++ (+++ indicates binding activity greater than 85%)
14,"C=CC(=O)N1CC2(CCN(c3nc(OCCN4CCCC4)nc(-c4c(C)ccc5[nH]ncc45)c3C#N)C2)C1 [Compound I-12, 4-(2-acryloyl-2,6-diazaspiro[3.4]octan-6-yl)-6-(5-methyl-1H-indazol-4-yl)-2-(2-(pyrrolidin-1-yl)ethoxy)pyrimidine-5-carbonitrile]",++ (++ indicates binding activity from 50 to 85%)
15,"Cc1ccc2[nH]ncc2c1-c1nc(N2CCOCC2)nc(N2CCC3(CN(C(=O)/C=C/CN4CCC4)C3)C2)c1C#N [Compound I-200, (E)-4-(2-(4-(azetidin-1-yl)but-2-enoyl)-2,6-diazaspiro[3.4]octan-6-yl)-6-(5-methyl-1H-indazol-4-yl)-2-morpholinopyrimidine-5-carbonitrile]",++ (++ indicates binding activity from 50 to 85%)
16,"C=CC(=O)N1CC2(CCN(c3nc(OC[C@@H]4CCCN4C)nc(-c4n[nH]c5ccccc45)c3C#N)C2)C1 [Compound I-90, (S)-4-(2-acryloyl-2,6-diazaspiro[3.4]octan-6-yl)-6-(1H-indazol-3-yl)-2-((1-methylpyrrolidin-2-yl)methoxy)pyrimidine-5-carbonitrile]",+ (+ indicates binding activity greater than 0% and up to 50%)
17,"C=CC(=O)N1CC2(CCN(c3nc(OC[C@@H]4CCCN4C)nc(Nc4ccccc4C(N)=O)c3C#N)C2)C1 [Compound I-36, (S)-2-((6-(2-acryloyl-2,6-diazaspiro[3.4]octan-6-yl)-5-cyano-2-((1-methylpyrrolidin-2-yl)methoxy)pyrimidin-4-yl)amino)benzamide]",+ (+ indicates binding activity greater than 0% and up to 50%)
18,"C=CC(=O)N1CC2(CCN(c3nc(OCCN4CCCC4=O)nc(-c4c(C)ccc5[nH]ncc45)c3C#N)C2)C1 [Compound I-20, 4-(2-acryloyl-2,6-diazaspiro[3.4]octan-6-yl)-6-(5-methyl-1H-indazol-4-yl)-2-(2-(2-oxopyrrolidin-1-yl)ethoxy)pyrimidine-5-carbonitrile]",++ (++ indicates binding activity from 50 to 85%)
19,"C=CC(=O)N1CC2(CCN(c3nc(OC[C@@H]4COCCN4C)nc(-c4c(C)ccc5[nH]ncc45)c3C#N)C2)C1 [Compound I-117, 4-(2-acryloyl-2,6-diazaspiro[3.4]octan-6-yl)-6-(5-methyl-1H-indazol-4-yl)-2-(((S)-4-methylmorpholin-3-yl)methoxy)pyrimidine-5-carbonitrile]",++ (++ indicates binding activity from 50 to 85%)
20,"C=CC(=O)N1CC2(CCN(c3nc(OCc4ccnnc4)nc(-c4c(C)ccc5[nH]ncc45)c3C#N)C2)C1 [Compound I-173, 4-(2-acryloyl-2,6-diazaspiro[3.4]octan-6-yl)-6-(5-methyl-1H-indazol-4-yl)-2-(pyridazin-4-ylmethoxy)pyrimidine-5-carbonitrile]",++ (++ indicates binding activity from 50 to 85%)
21,"C/C=C/C(=O)N1CC2(CCN(c3nc(OCc4ccccn4)nc(-c4c(C)ccc5[nH]ncc45)c3C#N)C2)C1 [Compound I-98, (E)-4-(2-(but-2-enoyl)-2,6-diazaspiro[3.4]octan-6-yl)-6-(5-methyl-1H-indazol-4-yl)-2-(pyridin-2-ylmethoxy)pyrimidine-5-carbonitrile]",+ (+ indicates binding activity greater than 0% and up to 50%)
22,"C=CC(=O)N1CC2(CCN(c3nc(OCCCN(C)C)cc(-c4c(C)ccc5[nH]ncc45)n3)C2)C1 [Compound I-146, 1-(6-(4-(3-(dimethylamino)pro-poxy)-6-(5-methyl-1H-indazol-4-yl)pyrimidin-2-yl)-2,6-diazaspiro[3.4]octan-2-yl)prop-2-en-1-one]",+ (+ indicates binding activity greater than 0% and up to 50%)
23,"C=CC(=O)N1CC2(CCN(c3c(OC[C@@H]4CCCN4C)ncc(-c4c(C)ccc5cnn(C)c45)c3C#N)C2)C1 [Compound I-182, 3-(2-acryloyl-2,6-diazaspiro[3.4]octan-6-yl)-5-(1,6-dimethyl-1H-indazol-7-yl)-2-(((S)-1-methylpyrrolidin-2-yl)methoxy)isonicoti-nonitrile]",+ (+ indicates binding activity greater than 0% and up to 50%)
24,"C=CC(=O)N1CC2(CC(=O)N(c3nc(N4CCOCC4)nc(-c4c(O)cccc4F)c3C#N)C2)C1 [Compound I-177, 4-(2-acryloyl-7-oxo-2,6-diazaspiro[3.4]octan-6-yl)-6-(2-fluoro-6-hydroxyphenyl)-2-morpholinopyrimidine-5-carbonitrile]",+ (+ indicates binding activity greater than 0% and up to 50%)
25,"C=CC(=O)N1CC2(CCN(c3nc(N4CCC(N5CCN(C6CC6)CC5)CC4)nc(-c4c(C)ccc5cnn(C)c45)c3C#N)C2)C1 [Compound I-216, 4-(2-acryloyl-2,6-diazaspiro[3.4]octan-6-yl)-2-(4-(4-cyclopropylpiperazin-1-yl)piperidin-1-yl)-6-(1,6-dimethyl-1H-indazol-7-yl)pyrimidine-5-carbonitrile]",++ (++ indicates binding activity from 50 to 85%)
